Assay results taken from patent publication US20140235689A1, “FUNGICIDAL PYRAZOLES” (E I DU PONT DE NEMOURS AND COMPANY, priority 2013, published 2014).

Legend:
Type in all cases: in vivo
[1] = tested on: Botrytis cinerea; assay: Test A: tomato Botrytis, preventive spray on tomato seedlings; conditions: 200 ppm test suspension, inoculated following day, visual rating, relative to controls
Experimental: General protocol for preparing test suspensions for Tests A-D: the test compounds were first dissolved in acetone in an amount equal to 3% of the final volume and then suspended at the desired concentration (in ppm) in acetone and purified water (50/50 mix by volume) containing 250 ppm of the surfactant Trem® 014 (polyhydric alcohol esters). The resulting test suspensions were then used in Tests A-G. Each test was conducted in triplicate, and the results were averaged. Spraying a 200 ppm test suspension to the point of run-off on the test plants was the equivalent of a rate of 800 g/ha. Unless otherwise indicated, the rating values indicate a 200 ppm test suspension was used. (An asterisk “*” next to the rating value indicates a 40 ppm test suspension was used.) The test suspension was sprayed to the point of run-off on tomato seedlings. The following day the seedlings were inoculated with a spore suspension of Botrytis cinerea (the causal agent of tomato Botrytis) and incubated in saturated atmosphere at 20° C. for 48 h, and then moved to a growth chamber at 24° C. for 3 additional days, after which time visual disease ratings were made. Results for Tests A-G are given in Table A. In the Table, a rating of 100 indicates 100% disease control and a rating of 0 indicates no disease control (relative to the controls). A hyphen (-) indicates no test results.

[2] = tested on: Puccinia recondita f. sp. tritici; assay: Test F: wheat leaf rust, preventive spray on wheat seedlings; conditions: 200 ppm test suspension, inoculated following day, visual rating, relative to controls
Experimental: General protocol for preparing test suspensions for Tests A-D: the test compounds were first dissolved in acetone in an amount equal to 3% of the final volume and then suspended at the desired concentration (in ppm) in acetone and purified water (50/50 mix by volume) containing 250 ppm of the surfactant Trem® 014 (polyhydric alcohol esters). The resulting test suspensions were then used in Tests A-G. Each test was conducted in triplicate, and the results were averaged. Spraying a 200 ppm test suspension to the point of run-off on the test plants was the equivalent of a rate of 800 g/ha. Unless otherwise indicated, the rating values indicate a 200 ppm test suspension was used. (An asterisk “*” next to the rating value indicates a 40 ppm test suspension was used.) The test suspension was sprayed to the point of run-off on wheat seedlings. The following day the seedlings were inoculated with a spore suspension of Puccinia recondita f. sp. tritici (the causal agent of wheat leaf rust) and incubated in a saturated atmosphere at 20° C. for 24 h, and then moved to a growth chamber at 20° C. for 6 days, after which time visual disease ratings were made. Results for Tests A-G are given in Table A. In the Table, a rating of 100 indicates 100% disease control and a rating of 0 indicates no disease control (relative to the controls). A hyphen (-) indicates no test results.

[3] = tested on: Blumeria graminis f. sp. tritici; assay: Test G: wheat powdery mildew, preventive spray on wheat seedlings; conditions: 200 ppm test suspension, inoculated following day with spore dust, visual rating, relative to controls
Experimental: General protocol for preparing test suspensions for Tests A-D: the test compounds were first dissolved in acetone in an amount equal to 3% of the final volume and then suspended at the desired concentration (in ppm) in acetone and purified water (50/50 mix by volume) containing 250 ppm of the surfactant Trem® 014 (polyhydric alcohol esters). The resulting test suspensions were then used in Tests A-G. Each test was conducted in triplicate, and the results were averaged. Spraying a 200 ppm test suspension to the point of run-off on the test plants was the equivalent of a rate of 800 g/ha. Unless otherwise indicated, the rating values indicate a 200 ppm test suspension was used. (An asterisk “*” next to the rating value indicates a 40 ppm test suspension was used.) The test suspension was sprayed to the point of run-off on wheat seedlings. The following day the seedlings were inoculated with a spore dust of Blumeria graminis f. sp. tritici (also known as Erysiphe graminis f. sp. tritici, the causal agent of wheat powdery mildew) and incubated in a growth chamber at 20° C. for 8 days, after which time visual disease ratings were made. Results for Tests A-G are given in Table A. In the Table, a rating of 100 indicates 100% disease control and a rating of 0 indicates no disease control (relative to the controls). A hyphen (-) indicates no test results.

[4] = tested on: Septoria tritici; assay: Test D: wheat leaf blotch, preventive spray on wheat seedlings; conditions: 200 ppm test suspension, inoculated following day, visual rating, relative to controls
Experimental: General protocol for preparing test suspensions for Tests A-D: the test compounds were first dissolved in acetone in an amount equal to 3% of the final volume and then suspended at the desired concentration (in ppm) in acetone and purified water (50/50 mix by volume) containing 250 ppm of the surfactant Trem® 014 (polyhydric alcohol esters). The resulting test suspensions were then used in Tests A-G. Each test was conducted in triplicate, and the results were averaged. Spraying a 200 ppm test suspension to the point of run-off on the test plants was the equivalent of a rate of 800 g/ha. Unless otherwise indicated, the rating values indicate a 200 ppm test suspension was used. (An asterisk “*” next to the rating value indicates a 40 ppm test suspension was used.) The test suspension was sprayed to the point of run-off on wheat seedlings. The following day the seedlings were inoculated with a spore suspension of Septoria tritici (the causal agent of wheat leaf blotch) and incubated in saturated atmosphere at 24° C. for 48 h. and then the seedlings were moved to a growth chamber at 20° C. for 19 additional days, after which time visual disease ratings were made. Results for Tests A-G are given in Table A. In the Table, a rating of 100 indicates 100% disease control and a rating of 0 indicates no disease control (relative to the controls). A hyphen (-) indicates no test results.

[5] = tested on: Septoria nodorum; assay: Test C: Septoria glume blotch, preventive spray on wheat seedlings; conditions: 200 ppm test suspension, inoculated following day, visual rating, relative to controls
Experimental: General protocol for preparing test suspensions for Tests A-D: the test compounds were first dissolved in acetone in an amount equal to 3% of the final volume and then suspended at the desired concentration (in ppm) in acetone and purified water (50/50 mix by volume) containing 250 ppm of the surfactant Trem® 014 (polyhydric alcohol esters). The resulting test suspensions were then used in Tests A-G. Each test was conducted in triplicate, and the results were averaged. Spraying a 200 ppm test suspension to the point of run-off on the test plants was the equivalent of a rate of 800 g/ha. Unless otherwise indicated, the rating values indicate a 200 ppm test suspension was used. (An asterisk “*” next to the rating value indicates a 40 ppm test suspension was used.) The test suspension was sprayed to the point of run-off on wheat seedlings. The following day the seedlings were inoculated with a spore suspension of Septoria nodorum (the causal agent of Septoria glume blotch) and incubated in a saturated atmosphere at 24° C. for 48 h, and then moved to a growth chamber at 20° C. for 9 days, after which time visual disease ratings were made. Results for Tests A-G are given in Table A. In the Table, a rating of 100 indicates 100% disease control and a rating of 0 indicates no disease control (relative to the controls). A hyphen (-) indicates no test results.

[6] = tested on: Alternaria solani; assay: Test B: tomato early blight, preventive spray on tomato seedlings; conditions: 200 ppm test suspension, inoculated following day, visual rating, relative to controls
Experimental: General protocol for preparing test suspensions for Tests A-D: the test compounds were first dissolved in acetone in an amount equal to 3% of the final volume and then suspended at the desired concentration (in ppm) in acetone and purified water (50/50 mix by volume) containing 250 ppm of the surfactant Trem® 014 (polyhydric alcohol esters). The resulting test suspensions were then used in Tests A-G. Each test was conducted in triplicate, and the results were averaged. Spraying a 200 ppm test suspension to the point of run-off on the test plants was the equivalent of a rate of 800 g/ha. Unless otherwise indicated, the rating values indicate a 200 ppm test suspension was used. (An asterisk “*” next to the rating value indicates a 40 ppm test suspension was used.) The test suspension was sprayed to the point of run-off on tomato seedlings. The following day the seedlings were inoculated with a spore suspension of Alternaria solani (the causal agent of tomato early blight) and incubated in a saturated atmosphere at 27° C. for 48 h, and then moved to a growth chamber at 20° C. for 5 days, after which time visual disease ratings were made. Results for Tests A-G are given in Table A. In the Table, a rating of 100 indicates 100% disease control and a rating of 0 indicates no disease control (relative to the controls). A hyphen (-) indicates no test results.

[7] = tested on: Puccinia recondita f. sp. tritici; assay: Test E: wheat leaf rust, spray after inoculation (curative) on wheat seedlings; conditions: 200 ppm test suspension, wheat seedlings sprayed after inoculation, visual rating, relative to controls
Experimental: General protocol for preparing test suspensions for Tests A-D: the test compounds were first dissolved in acetone in an amount equal to 3% of the final volume and then suspended at the desired concentration (in ppm) in acetone and purified water (50/50 mix by volume) containing 250 ppm of the surfactant Trem® 014 (polyhydric alcohol esters). The resulting test suspensions were then used in Tests A-G. Each test was conducted in triplicate, and the results were averaged. Spraying a 200 ppm test suspension to the point of run-off on the test plants was the equivalent of a rate of 800 g/ha. Unless otherwise indicated, the rating values indicate a 200 ppm test suspension was used. (An asterisk “*” next to the rating value indicates a 40 ppm test suspension was used.) Wheat seedlings were inoculated with a spore suspension of Puccinia recondita f. sp. tritici (the causal agent of wheat leaf rust) and incubated in a saturated atmosphere at 20° C. for 24 h, and then moved to a growth chamber at 20° C. for 2 days. After 2 days, the test suspension was sprayed to the point of run-off on the wheat seedlings, and then the seedlings were moved back to the growth chamber at 20° C. for 4 days. Upon removal, visual disease ratings were made. […]

SMILES	Test A disease control rating (100 = 100% disease control, 0 = no disease control) [1]	Test F disease control rating (100 = 100% disease control, 0 = no disease control) [2]	Test G disease control rating (100 = 100% disease control, 0 = no disease control) [3]	Test D disease control rating (100 = 100% disease control, 0 = no disease control) [4]	Test C disease control rating (100 = 100% disease control, 0 = no disease control) [5]	Test B disease control rating (100 = 100% disease control, 0 = no disease control) [6]	Test E disease control rating (100 = 100% disease control, 0 = no disease control) [7]
Cc1nn(C)c(C(N)c2ccc(F)cc2F)c1-c1c(F)cccc1F (stereo not drawn) [Compound 3, α-(2,4-difluorophenyl)-4-(2,6-difluorophenyl)-1,3-dimethyl-1H-pyrazol-5-methanamine]	98	99	98	100	–	–	–
CNC(c1ccc(F)cc1F)c1c(-c2c(F)cccc2F)c(C)nn1C (stereo not drawn) [Compound 2, α-(2,4-difluorophenyl)-4-(2,6-difluorophenyl)-N,1,3-trimethyl-1H-pyrazol-5-methanamine]	–	0	82	99	0	0	0
CSC(c1ccc(F)cc1F)c1c(-c2c(F)cccc2F)c(C)nn1C (centres unmarked) [Compound 4, 4-(2,6-difluorophenyl)-5-[(2,4-difluorophenyl)(methylthio)methyl]-1,3-dimethyl-1H-pyrazole]	31	85	82	99	0	0	9
